# Assay results as given in US9187424B1, “Aryl dihydropyridinones and piperidinone MGAT2 inhibitors” (Bristol-Myers Squibb Company, priority 2011, dated 2015).
# Key:
# [1] = target: T1, Human MGAT-2 (Homo sapiens (Human), UniProt Q3SYC2); assay: MGAT SPA Assay; format: biochemical; conditions: membranes from Sf9 cells expressing recombinant human MGAT2; 2-monooleoylglycerol and [3H]-oleoyl-CoA;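 note: inhibition scaled between DMSO vehicle as full MGAT2 activity and membranes of uninfected Sf9 cells as blank, IC50 fitted by logistic curve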
# T1 sequence (Q3SYC2 whole entry): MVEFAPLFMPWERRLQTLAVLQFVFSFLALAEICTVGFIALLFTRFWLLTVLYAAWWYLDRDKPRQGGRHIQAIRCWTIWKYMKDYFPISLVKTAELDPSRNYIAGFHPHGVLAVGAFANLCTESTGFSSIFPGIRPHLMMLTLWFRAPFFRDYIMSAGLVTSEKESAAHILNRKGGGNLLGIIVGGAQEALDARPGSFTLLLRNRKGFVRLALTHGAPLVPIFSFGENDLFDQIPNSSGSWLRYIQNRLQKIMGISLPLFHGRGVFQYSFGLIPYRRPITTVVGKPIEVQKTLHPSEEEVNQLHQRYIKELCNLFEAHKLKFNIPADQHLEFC
# [2] = target: T1, Human MGAT-2; assay: MGAT LCMS Assay (human MGAT-2); format: biochemical; conditions: human MGAT-2 membranes expressed in Sf9 cells; 2-oleoylglycerol and oleoyl-Coenzyme A; read-out: h-MGAT2 IC50 (nM) LCMS Assay;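 note: diolein product quantified by LC/MS with positive APCI, expressed as peak area ratio versus an internal standard, and this ratio used to derive IC50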
SMILES,IC50 [1],IC50 [2]
Cc1ccc(C2=C(NC(=O)c3oncc3C)C(=O)NC(c3ccc(OCCCC(F)(F)F)cc3)(C(F)(F)F)C2)cc1 (centres unmarked) [Example 157],168 nM,84 nM
Cc1ccc(C2=C(NC(=O)c3ccc(Cl)nn3)C(=O)NC(c3ccc(OCCCC(F)(F)F)cc3)(C(F)(F)F)C2)cc1 (centres unmarked) [Example 158],302 nM,75 nM
COc1ccc(C(=O)NC2=C(c3ccc(C)cc3)C(F)(F)C(c3ccc(OCCCC(F)(F)F)cc3)(C(F)(F)F)NC2=O)cc1 (centres unmarked) [Example 163],1180 nM,47 nM
Cc1ccc(C2=C(C(=O)Nc3ccc(F)cc3)C(=O)NC(c3ccc(Oc4ccccc4)cc3)(C(F)(F)F)C2)cc1 (centres unmarked) [Example 165],60 nM,8 nM
CCCCCCCNC(=O)C1(C)CC(c2ccc(C)cc2)=C(C(=O)Nc2ccc(OC)cc2)C(=O)N1 (centres unmarked) [Example 166],237 nM,102 nM
Cc1ccc(C2=C(NC(=O)c3cc(F)ccc3Cl)C(=O)NC(c3ccc(OCCCC(F)(F)F)cc3)(C(F)(F)F)C2)cc1 (centres unmarked) [Example 171],724 nM,57 nM
CCCCCCCCNC(=O)C1(C)CC(c2ccc(C)cc2)=C(C(=O)Nc2ccc(OC)cc2)C(=O)N1 (centres unmarked) [Example 174],237 nM,60 nM

# The next compounds have a lower IC50 [1] than those just listed; values first:
IC50 [1],IC50 [2],SMILES
11 nM,3 nM,Cc1ccc(C2=C(NC(=O)c3cc(C)no3)C(=O)NC(c3ccc(OCCCC(F)(F)F)cc3)(C(F)(F)F)C2(F)F)cc1 (centres unmarked) [Example 150]
34 nM,8 nM,Cc1ccc(C2=C(NC(=O)c3nnc(C)o3)C(=O)NC(c3ccc(OCCCC(F)(F)F)cc3)(C(F)(F)F)C2)cc1 (centres unmarked) [Example 154]
8 nM,2 nM,O=C1NC(c2ccc(OCCCC(F)(F)F)cc2)(C(F)(F)F)CC(c2ccc(OC(F)F)cc2)=C1NC(=O)c1ccno1 (centres unmarked) [Example 167]
16 nM,3 nM,CCCCOc1ccc(C2(C(F)(F)F)CC(c3ccc(OC)cc3)=C(NC(=O)c3ccno3)C(=O)N2)cc1 (centres unmarked) [Example 172]
43 nM,63 nM,CCCCCCCCCCCCCCCCNC(=O)C1(C)CC(c2ccc(C)cc2)=C(C(=O)Nc2ccc(OC)cc2)C(=O)N1 (centres unmarked) [Example 173]
47 nM,78 nM,COc1ccc(NC(=O)C2=C(c3ccc(C)cc3)CC(C)(C(=O)NCCCCc3ccccc3)NC2=O)cc1 (centres unmarked) [Example 178]
24 nM,2 nM,Cc1ccc(C2=C(NC(=O)c3cc(Br)no3)C(=O)NC(c3ccc(OCCCC(F)(F)F)cc3)(C(F)(F)F)C2)cc1 (centres unmarked) [Example 179]
36 nM,30 nM,Cc1ccc(C2=C(NC(=O)c3cc(OCc4ccccc4)no3)C(=O)NC(c3ccc(OCCCC(F)(F)F)cc3)(C(F)(F)F)C2)cc1 (centres unmarked) [Example 180]
21 nM,10 nM,COc1cnc(NC(=O)C2=C(c3ccc(C)cc3)CC(c3ccc(OCCCCC(F)(F)F)cc3)(C(F)(F)F)NC2=O)cn1 (centres unmarked) [Example 273]
